# Columns and labels:
# [1] = system: oxazolone-induced colitis; test: Mouse model of oxazolone-induced colitis; format: in vivo; settings: 3 mg/kg (PO, BID)
# Summary of the method: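 BALB/c mice skin-sensitized with 4% oxazolone, then challenged intrarectally seven days later with 50 μL 0.8% oxazolone in 1:1 ethanol:water. Oral dosing (QD, BID or TID) or vehicle started one day before challenge. Blinded scoring two days post-challenge: stool consistency plus gross bleeding (0/2/4 each), summed as combined stool score.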
# [2] = system: IL-2 stimulated pSTAT5 in CD4+ T cells; test: Inhibition of IL-2 stimulated pSTAT5 in CD4+ T cells isolated from murine splenocytes; format: cell-based; settings: Mus musculus, AlphaLisa, read-out: pIC50, inhibition of IL-2 stimulated pSTAT5 (converted)
# Procedure: The potency of test compounds for inhibition of interleukin-2 (IL-2) stimulated STAT5 phosphorylation was measured in the CD4+ T cells isolated from murine splenocytes using AlphaLisa. Because IL-2 signals through JAK3, this assay provides a measure of JAK3 cellular potency in mouse.
# Phosphorylated STAT5 was measured via the AlphaLISA SureFire Ultra pSTAT5 (Tyr694/699) kit (PerkinElmer).
# CD4+ T cells were isolated from murine splenocytes via negative selection on a magnetic column (Miltnyi Biotec) and re-suspended in assay media (phenol red-free DMEM (Life Technologies) supplemented with 10% FBS (ATCC)). Cells were seeded at 50,000 cells/well in assay media (2 μL/well). Compounds were serially diluted in DMSO and diluted to 2× final concentration in assay media. Compound was added (4 μl/well) and the cells incubated at 37° C., 5% CO2 for 1 hour, followed by the addition of IL-2 (R&D Systems; final concentration 7 ng/ml) in pre-warmed assay media (2 μL) for 30 minutes. After cytokine stimulation, cells were lysed with 2 μl of 5× AlphaLisa Lysis Buffer (PerkinElmer). The lysate was shaken at 900 rpm for 10 minutes at room temperature (RT). Phosphorylated STAT5 was measured via the pSTAT5 AlphaLisa kit (PerkinElmer). Freshly prepared acceptor bead mixture was dispensed onto lysate (5 ul) under green filtered <100 lux light. Plates were shaken at 900 rpm for 2 mins, briefly spun down, and incubated for 2 hrs at RT in the dark. Donor beads were dispensed (5 μl) under green filtered <100 lux light. Plates were shaken at 900 rpm for 2 mins, briefly spun down, and incubated overnight at RT in the dark. Luminescence was measured with excitation at 689 nm and emission at 570 nm using an EnVision plate reader (PerkinElmer) under green filtered <100 lux light.
# To determine the inhibitory potency of test compounds in response to IL-2, the average emission intensity of beads bound to pSTAT5 was measured in primary CD4+ T cells isolated from murine splenocytes. IC50 values were determined from analysis of the inhibition curves of signal intensity vs compound concentration. Data are expressed as pIC50 (negative decadic logarithm IC50) values (mean±standard deviation).
# JAK3 = molecular target: T1, JAK3 (Homo sapiens, UniProt P52333); test: Co-crystal structures bound to human JAK3; settings: ATP binding site of human JAK3
# T1 sequence (P52333 1-1124): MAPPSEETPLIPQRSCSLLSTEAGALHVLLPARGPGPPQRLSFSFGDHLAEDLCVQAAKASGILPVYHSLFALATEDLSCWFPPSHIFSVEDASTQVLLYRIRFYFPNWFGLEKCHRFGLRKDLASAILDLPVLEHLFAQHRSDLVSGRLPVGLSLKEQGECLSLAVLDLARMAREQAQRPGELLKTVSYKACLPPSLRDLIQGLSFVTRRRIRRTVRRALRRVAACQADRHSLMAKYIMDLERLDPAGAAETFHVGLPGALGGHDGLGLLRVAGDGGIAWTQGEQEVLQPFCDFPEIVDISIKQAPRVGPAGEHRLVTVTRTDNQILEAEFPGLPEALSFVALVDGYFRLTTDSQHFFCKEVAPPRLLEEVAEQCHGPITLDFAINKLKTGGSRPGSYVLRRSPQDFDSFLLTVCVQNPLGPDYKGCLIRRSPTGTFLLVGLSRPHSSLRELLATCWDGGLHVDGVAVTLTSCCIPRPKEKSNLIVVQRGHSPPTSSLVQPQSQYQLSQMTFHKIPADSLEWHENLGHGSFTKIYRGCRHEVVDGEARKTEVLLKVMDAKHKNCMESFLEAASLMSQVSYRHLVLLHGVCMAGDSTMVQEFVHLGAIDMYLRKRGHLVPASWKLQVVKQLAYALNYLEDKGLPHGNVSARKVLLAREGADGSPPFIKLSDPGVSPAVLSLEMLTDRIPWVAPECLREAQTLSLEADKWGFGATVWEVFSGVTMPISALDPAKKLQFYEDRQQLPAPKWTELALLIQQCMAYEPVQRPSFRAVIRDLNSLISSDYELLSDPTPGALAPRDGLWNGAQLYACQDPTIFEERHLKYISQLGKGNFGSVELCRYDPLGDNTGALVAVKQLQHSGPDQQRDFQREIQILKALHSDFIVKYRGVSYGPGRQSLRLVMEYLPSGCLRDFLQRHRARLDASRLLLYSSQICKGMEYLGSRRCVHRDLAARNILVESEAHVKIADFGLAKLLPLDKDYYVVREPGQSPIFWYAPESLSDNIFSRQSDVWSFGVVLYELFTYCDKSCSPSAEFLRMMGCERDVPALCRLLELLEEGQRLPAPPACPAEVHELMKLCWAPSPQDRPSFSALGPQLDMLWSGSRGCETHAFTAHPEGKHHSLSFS
# Description: Co-crystal structures were obtained for compounds 1, 3 and 4 each bound to human JAK3. The resolutions for the complex structures were at 2.73 Å, 2.80 Å, and 2.64 Å respectively for compound 1, compound 3 and compound 4. […] Based on a distance of less than 3.5 Å of the donor and acceptor atoms four specific hydrogen bonds were identified for each of the ligands, namely to the main chain atoms of Glu903, Leu905 and Phe968 as well as the side chain atoms of Glu871. An additional hydrogen bond was identified for compound 1 to the side chain atoms of Asp 912. […] The S—H moiety of the cysteine residue performs an addition reaction to the Michael system. The observed results of the covalent binding interaction in the crystal structures confirms the irreversible binding nature for each of these ligands to JAK3.
SMILES,combined stool score endpoint as compared with vehicle treated animals [1],IC50 [2] [nM],binding mode in co-crystal structure (JAK3)
"C=CC(=O)N1CC[C@H](Oc2cc(-c3ccc(O)c(Cl)c3)cc3[nH]ncc23)C1 [Compound 2, (S)-1-(3-((6-(3-chloro-4-hydroxyphenyl)-1H-indazol-4-yl)oxy)pyrrolidin-1-yl)prop-2-en-1-one]",statistically significant decrease,,
"C=CC(=O)N1CC(C(C)(C)Oc2cc(-c3ccc(O)cc3)nc3[nH]ncc23)C1 [Compound 20, 1-(3-(2-((6-(4-hydroxyphenyl)-1H-pyrazolo[3,4-b]pyridin-4-yl)oxy)propan-2-yl)azetidin-1-yl)prop-2-en-1-one]",,< 1000,
"CN(C)C/C=C/C(=O)N1CC(COc2cc(-c3ccc(O)c(F)c3)cc3[nH]ncc23)C1 [Compound 5, (E)-4-(dimethylamino)-1-(3-(((6-(3-fluoro-4-hydroxyphenyl)-1H-indazol-4-yl)oxy)methyl)azetidin-1-yl)but-2-en-1-one]",statistically significant decrease,,
"C=CC(=O)N1CC(C)(COc2nc(-c3ccc(O)c(F)c3)nc3[nH]ncc23)C1 [Compound 21, 1-(3-(((6-(3-fluoro-4-hydroxyphenyl)-1H-pyrazolo[3,4-d]pyrimidin-4-yl)oxy)methyl)-3-methylazetidin-1-yl)prop-2-en-1-one]",statistically significant decrease,< 1000,
"C=CC(=O)N1CC(COc2nc(-c3ccc(O)cc3)nc3[nH]ncc23)C1 [Compound 4, 1-(3-(((6-(4-hydroxyphenyl)-1H-pyrazolo[3,4-d]pyrimidin-4-yl)oxy)methyl)azetidin-1-yl)prop-2-en-1-one]",statistically significant decrease,,covalently bound to Cys909 of JAK3
"C=CC(=O)N1CCO[C@@H](C(=O)Nc2cc(-c3ccc(O)cc3)cc3[nH]ncc23)C1 [Compound 6, (R)-4-acryloyl-N-(6-(4-hydroxyphenyl)-1H-indazol-4-yl)morpholine-2-carboxamide]",statistically significant decrease,,
"C=CC(=O)N1CC(CC)(COc2cc(-c3ccc(O)cc3)nc3[nH]ncc23)C1 [Compound 22, 1-(3-ethyl-3-(((6-(4-hydroxyphenyl)-1H-pyrazolo[3,4-b]pyridin-4-yl)oxy)methyl)azetidin-1-yl)prop-2-en-1-one]",,< 1000,
"CN(C)C/C=C/C(=O)N1CC(C#N)(COc2cc(-c3ccc(O)c(F)c3)cc3[nH]ncc23)C1 [Compound 8, (E)-1-(4-(dimethylamino)but-2-enoyl)-3-(((6-(3-fluoro-4-hydroxyphenyl)-1Hindazol-4-yl)oxy)methyl)azetidine-3-carbonitrile]",statistically significant decrease,,
"C=CC(=O)N1CC[C@H](COc2cc(-c3ccc(O)cc3)cc3[nH]ncc23)C1 [Compound 7, (S)-1-(3-(((6-(4-hydroxyphenyl)-1H-indazol-4-yl)oxy)methyl)pyrrolidin-1-yl)prop-2-en-1-one]",statistically significant decrease,,
"CN(C)C/C=C/C(=O)N1CC(COc2cc(-c3ccc(O)cc3)cc3[nH]ncc23)C1 [Compound 1, (E)-4-(dimethylamino)-1-(3-(((6-(4-hydroxyphenyl)-1H-indazol-4-yl)oxy)methyl)azetidin-1-yl)but-2-en-1-one]",statistically significant decrease,,covalently bound to Cys909 of JAK3
"CN(C)C/C=C/C(=O)N1CC(C(C)(C)Oc2cc(-c3ccc(O)c(Cl)c3)cc3[nH]ncc23)C1 [Compound 3, (E)-1-(3-(2-((6-(3-chloro-4-hydroxyphenyl)-1H-indazol-4-yl)oxy)propan-2-yl)azetidin-1-yl)-4-(dimethylamino)but-2-en-1-one]",statistically significant decrease,,covalently bound to Cys909 of JAK3

# Source: patent publication US10392368B2, “Pyrazolo and triazolo bicyclic compounds as JAK kinase inhibitors” (THERAVANCE BIOPHARMA R&D IP, LLC, priority 2017, dated 2019)
